The values below come from patent publication US20120053185A1, “METHOD TO TREAT MELANOMA IN BRAF INHIBITOR-RESISTANT SUBJECTS” (CollabRx Inc., priority 2010, published 2012).

The subject of one assay is patient's tumor. Nature of the assay: Case report: patient who became resistant to successive therapies (Example 1). In kind it is in vivo, human. Conditions: single patient. As for the experimental part:
A person had been on multiple lines of therapy, with a response to each, but then becoming resistant. The treatments were as follows:
In July, ipilimumab (a therapy directed at CTLA-4, an inhibitor of the immune system) was started. Sutent® was then administered in addition to the ipilimumab. […] As the patient, however, could not eat, they discontinued the Sutent® and died a few days after this discontinuation.

The subject of a further assay is metastatic melanoma. Conditions: patients with the mutation, cited from earlier work.
[1] abbreviates: Sutent given in addition to ipilimumab, within a few days.

Consider `CCCS(=O)(=O)Nc1ccc(F)c(C(=O)c2c[nH]c3ncc(-c4ccc(Cl)cc4)cc23)c1F` [Plexxikon 4032], for which the “patient's tumor shrank” value in the assay on patient's tumor (first scan after treatment started January 2010) is recorded as 75%. For the same compound, the “result of second scan” value in the assay on patient's tumor (second scan April 2010) is given as “recurrence”. Further, the response rate in the assay on metastatic melanoma (one study) is reported as 70%. Moreover, the durability of responses entry in the assay with metastatic melanoma was “generally does not produce durable responses”.
For the compound `CCN(CC)CCNC(=O)c1c(C)[nH]c(/C=C2\C(=O)Nc3ccc(F)cc32)c1C` [Sutent®, 5-(5-fluoro-2-oxo-1,2-dihydroindo1-3-ylidenemethyl)-2,4-dimethyl-1H-pyrrole-3-carboxylic acid (2-diethylaminoethyl)amide], in the assay with patient's tumor (setting [1]), the abdomen size entry is on record as “abdomen shrank to normal size” and the bowel movements result is “normal bowel movements resumed”.
